Measurements as given in patent US9382254B2, “Compounds and pharmaceutical compositions thereof for the treatment of cystic fibrosis” (Galapagos NV, priority 2013, dated 2016).
Values joined by “and” are separate entries in the source; they are usually repeats but may differ in a detail not shown here. Equal values may be shown once.

Legend:
Format in all cases: cell-based
[1] = target: T1, CFTR-G1349D (Homo sapiens, UniProt P13569, G1349D); assay: YFP-halide influx assay for the CFTR-G1349D
T1 construct: expressed in transfected cells
T1 sequence (P13569 whole entry G1349D): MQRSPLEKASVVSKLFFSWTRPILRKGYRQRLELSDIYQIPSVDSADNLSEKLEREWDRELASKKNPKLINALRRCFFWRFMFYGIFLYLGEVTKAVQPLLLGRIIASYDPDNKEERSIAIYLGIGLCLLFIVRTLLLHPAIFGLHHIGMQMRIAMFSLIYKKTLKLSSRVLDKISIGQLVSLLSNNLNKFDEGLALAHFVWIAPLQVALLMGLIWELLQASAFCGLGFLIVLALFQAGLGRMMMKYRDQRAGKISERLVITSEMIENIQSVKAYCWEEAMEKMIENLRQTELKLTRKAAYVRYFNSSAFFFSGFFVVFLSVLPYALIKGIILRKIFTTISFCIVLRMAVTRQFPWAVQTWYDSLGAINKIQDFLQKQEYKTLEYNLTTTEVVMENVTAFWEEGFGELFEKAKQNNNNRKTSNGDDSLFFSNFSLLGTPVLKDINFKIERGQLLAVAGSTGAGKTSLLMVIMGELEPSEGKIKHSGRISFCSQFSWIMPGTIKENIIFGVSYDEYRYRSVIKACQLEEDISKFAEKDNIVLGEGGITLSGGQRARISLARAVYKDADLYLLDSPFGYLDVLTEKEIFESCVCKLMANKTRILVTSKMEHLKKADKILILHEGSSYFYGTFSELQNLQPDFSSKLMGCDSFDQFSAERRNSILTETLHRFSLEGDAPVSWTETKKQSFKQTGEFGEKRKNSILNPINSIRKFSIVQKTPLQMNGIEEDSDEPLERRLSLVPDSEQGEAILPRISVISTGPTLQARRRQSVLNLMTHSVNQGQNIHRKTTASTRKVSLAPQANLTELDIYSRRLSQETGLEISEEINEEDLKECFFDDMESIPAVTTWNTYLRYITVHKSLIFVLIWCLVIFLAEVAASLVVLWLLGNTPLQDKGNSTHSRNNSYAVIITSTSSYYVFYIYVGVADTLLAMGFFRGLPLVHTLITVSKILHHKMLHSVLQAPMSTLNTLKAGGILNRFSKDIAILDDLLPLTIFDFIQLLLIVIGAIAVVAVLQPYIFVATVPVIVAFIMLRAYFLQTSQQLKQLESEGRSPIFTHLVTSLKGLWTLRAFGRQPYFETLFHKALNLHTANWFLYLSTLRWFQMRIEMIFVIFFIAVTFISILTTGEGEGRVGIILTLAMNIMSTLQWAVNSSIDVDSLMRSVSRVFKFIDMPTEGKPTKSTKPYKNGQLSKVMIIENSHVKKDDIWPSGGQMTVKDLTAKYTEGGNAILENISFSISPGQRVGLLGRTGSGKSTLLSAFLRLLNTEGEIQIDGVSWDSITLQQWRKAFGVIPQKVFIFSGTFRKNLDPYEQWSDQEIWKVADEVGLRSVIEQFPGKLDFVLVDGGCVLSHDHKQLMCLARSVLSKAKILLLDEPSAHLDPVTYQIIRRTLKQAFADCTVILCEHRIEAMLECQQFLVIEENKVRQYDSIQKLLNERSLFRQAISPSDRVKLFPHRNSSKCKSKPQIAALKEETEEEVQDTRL
Source text: (§1) The YFP halide influx assay measures the functionality of the cystic fibrosis Transmembrane Conductance regulator (CFTR) channels. The assay is used to evaluate the capacity of compounds to increase the channel opening of existing mutant CFTR channels in the membrane. It makes use of the observation that the yellow fluorescent protein (YFP) variant YFP H148Q, I152L, […] has its fluorescence substantially quenched by halide ions like Cl^− and I^−. (Galietta, Haggie, & Verkman, 2001)
(§2) For this purpose, HEK293-cells are seeded in 96 well plates. During seeding, the cells are reverse-transfected with plasmid vectors that direct the expression of the CFTR G551D mutant and of the YFP reporter. Cells are incubated at 37° C., 5% CO2 for 24 hours so as to allow for sufficient expression of the CFTR protein.
(§3) The I^−-induced quenching of fluorescence is recorded immediately after injection of I^− for 7 seconds. The capacity of a compound to increase the channel opening is directly correlated with the decrease in fluorescence, and is expressed as (1-(fluorescence after 7 seconds (F)/fluorescence before injection (F0))) and an EC50 can be derived from a (1-F/F0) vs compound concentration plot.
(§4) Similar YHA assays were developed for other channel gating defective or channel conductance defective CFTR mutants to determine effect of compound on channel activity. Examples of mutants are G178R, G1349D, S549N, R117H, R334W. This assay is also used for additional class I CFTR mutants, including G542X, W1282X; class II mutants including N1303K, and for class III mutants including S1251N.

[2] = target: T2, CFTR-G178R (Homo sapiens, UniProt P13569, G178R); assay: YFP-halide influx assay for the CFTR-G178R
T2 construct: expressed in transfected cells
T2 sequence (P13569 whole entry G178R): as the sequence (P13569 whole entry G1349D) above, with G178R, D1349G counted along it
Source text: as §1, §2, §3, §4

[3] = target: T3, CFTR ΔF508 mutant (Homo sapiens, UniProt P13569, DEL508-508); assay: YFP-halide influx assay for the CFTR-ΔF508 mutation, PBS buffer (96 well); settings: CFBE41o- cells, forskolin 10.67 μM
T3 construct: expressed in transfected cells; host or cells: CFBE41o- (adenoviral transduction)
T3 sequence (P13569 with tags, fused parts or gaps DEL508-508): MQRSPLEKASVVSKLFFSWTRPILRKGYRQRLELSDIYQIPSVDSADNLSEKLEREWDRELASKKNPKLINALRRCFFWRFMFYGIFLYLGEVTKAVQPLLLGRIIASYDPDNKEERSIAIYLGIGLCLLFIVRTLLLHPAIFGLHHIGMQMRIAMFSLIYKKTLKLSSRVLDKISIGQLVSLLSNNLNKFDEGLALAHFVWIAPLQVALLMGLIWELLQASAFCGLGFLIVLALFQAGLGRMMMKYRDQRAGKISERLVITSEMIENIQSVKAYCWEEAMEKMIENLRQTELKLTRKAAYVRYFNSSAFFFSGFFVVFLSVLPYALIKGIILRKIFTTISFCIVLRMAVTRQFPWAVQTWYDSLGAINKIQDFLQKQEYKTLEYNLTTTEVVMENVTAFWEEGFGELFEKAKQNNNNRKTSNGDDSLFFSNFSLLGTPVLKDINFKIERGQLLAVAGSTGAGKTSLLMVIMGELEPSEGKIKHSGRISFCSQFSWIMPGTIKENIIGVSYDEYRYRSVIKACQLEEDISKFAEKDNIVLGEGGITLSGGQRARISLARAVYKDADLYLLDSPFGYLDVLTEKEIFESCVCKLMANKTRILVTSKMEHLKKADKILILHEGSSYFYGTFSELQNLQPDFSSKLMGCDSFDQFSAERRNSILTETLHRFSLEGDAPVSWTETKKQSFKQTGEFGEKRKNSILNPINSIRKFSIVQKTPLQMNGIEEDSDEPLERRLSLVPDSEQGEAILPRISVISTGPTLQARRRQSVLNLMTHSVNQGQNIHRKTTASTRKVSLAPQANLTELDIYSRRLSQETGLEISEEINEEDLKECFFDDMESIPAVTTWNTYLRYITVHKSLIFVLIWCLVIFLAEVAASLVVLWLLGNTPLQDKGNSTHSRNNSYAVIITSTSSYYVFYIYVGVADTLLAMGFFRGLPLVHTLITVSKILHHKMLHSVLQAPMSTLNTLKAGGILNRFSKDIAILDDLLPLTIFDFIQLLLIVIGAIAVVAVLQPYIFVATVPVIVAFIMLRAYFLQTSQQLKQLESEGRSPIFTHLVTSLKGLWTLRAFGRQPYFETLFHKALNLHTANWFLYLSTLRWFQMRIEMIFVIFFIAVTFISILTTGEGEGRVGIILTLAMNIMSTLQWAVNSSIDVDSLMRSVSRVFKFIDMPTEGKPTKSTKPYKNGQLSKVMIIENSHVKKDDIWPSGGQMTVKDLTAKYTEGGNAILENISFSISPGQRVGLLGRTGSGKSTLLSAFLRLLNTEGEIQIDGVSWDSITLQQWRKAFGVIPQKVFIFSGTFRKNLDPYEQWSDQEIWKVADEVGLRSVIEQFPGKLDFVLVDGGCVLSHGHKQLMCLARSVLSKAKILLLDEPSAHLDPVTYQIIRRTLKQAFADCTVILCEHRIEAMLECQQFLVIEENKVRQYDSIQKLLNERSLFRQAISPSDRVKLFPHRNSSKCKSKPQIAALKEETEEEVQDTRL
Method in brief: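 CFBE41o- cells were adenovirally transduced with CFTR ΔF508 and YFP H148Q/I152L, then incubated 24 h at 27 °C or with a CFTR modulator at 37 °C. I⁻-induced fluorescence quenching was recorded over 7 s after injection; response expressed as 1−F/F0, with EC50 from concentration plots.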

[4] = target: T4, CFTR-S549N (Homo sapiens, UniProt P13569, S549N); assay: YFP-halide influx assay for the CFTR-S549N
T4 construct: expressed in transfected cells
T4 sequence (P13569 whole entry S549N): as the sequence (P13569 whole entry G1349D) above, with S549N, D1349G counted along it
Source text: as §1, §2, §3, §4

[5] = target: T5, CFTR-R117H (Homo sapiens, UniProt P13569, R117H); assay: YFP-halide influx assay for the CFTR-R117H
T5 construct: expressed in transfected cells
T5 sequence (P13569 whole entry R117H): as the sequence (P13569 whole entry G1349D) above, with R117H, D1349G counted along it
Source text: as §1, §2, §3, §4

[6] = target: T3, CFTR ΔF508 mutant; assay: YFP-halide influx assay for the CFTR-ΔF508 mutation (384 well, FDSS/μCell); settings: CFBE41o- cells, CFTR-ΔF508, 1×D-PBS, fluorescence after 36 seconds
Method in brief: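 Potentiator read-out as 1−F/F0, F taken 36 s after iodide addition, EC50 fitted against compound concentration. Cells: CFBE41o- expressing ΔF508 CFTR plus halide-sensitive YFP via adenovirus, rescued by 27 °C for 24 h or 24 h modulator at 37 °C.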

[7] = target: T6, CFTR G551D mutant (Homo sapiens, UniProt P13569, G551D); assay: YFP-halide influx assay for the CFTR-G551D mutation; settings: HEK293 cells, forskolin 10.67 μM
T6 construct: expressed in transfected cells; host or cells: HEK293 (reverse transfection with plasmid)
T6 sequence (P13569 whole entry G551D): as the sequence (P13569 whole entry G1349D) above, with G551D, D1349G counted along it
Method in brief: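 Channel opening potentiation measured as 1−F/F0, where F is YFP fluorescence 7 s after iodide injection and F0 before; EC50 taken from concentration plot. Cells: HEK293 transiently expressing CFTR G551D plus halide-sensitive YFP (H148Q, I152L, F47L), 24 h at 37 °C, 5% CO2.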

Structure (SMILES) | EC50 [1] [nM] | EC50 [2] [nM] | EC50 [3] | EC50 [4] [nM] | EC50 [5] [nM] | EC50 [6] [nM] | EC50 [7]
NC(=O)c1cc(S(=O)(=O)c2ccc(F)cc2)sc1NC(=O)C1(CO)CC1 [Compound 254, 5-(4-fluorophenylsulfonyl)-2-(1-(hydroxymethyl)cyclopropanecarboxamido) thiophene-3-carboxamide] | 141 | 58 | 30.3 nM and 137 nM | 243 | 127 | 27.8 | 878 nM and 1410 nM
CC(C)(O)C(=O)Nc1sc(S(=O)(=O)c2ccc(OC(F)(F)F)cc2)cc1C(N)=O [Compound 270, 2-(2-hydroxy-2-methylpropanamido)-5-(4-(trifluoromethoxy)phenylsulfonyl) thiophene-3-carboxamide] | 211 | 291 | 19.7 nM | 415 | 181 | 18.3 | 478 nM
COc1cc(C)cc(S(=O)(=O)c2cc(C(N)=O)c(NC(=O)C(C)(C)O)s2)c1 [Compound 416, 2-[(2-hydroxy-2-methyl-propanoyl)amino]-5-(3-methoxy-5-methyl-phenyl)sulfonyl-thiophene-3-carboxamide] | 353 | 268 | – | 1780 | 351 | 17.7 | 773 nM
COc1cc(S(=O)(=O)c2cc(C(N)=O)c(NC(=O)C(C)(C)O)s2)c(OC(F)F)cn1 [Compound 418, 5-[[5-(difluoromethoxy)-2-methoxy-4-pyridyl]sulfonyl]-2-[(2-hydroxy-2-methyl-propanoyl)amino] thiophene-3-carboxamide] | 18.4 | 14.4 | – | 184 | 192 | 8.18 | 390 nM
COc1cc(C#N)cc(S(=O)(=O)c2cc(C(N)=O)c(NC(=O)C(C)(C)O)s2)c1OC(F)F [Compound 419, 5-[5-cyano-2-(difluoromethoxy)-3-methoxy-phenyl]sulfonyl-2-[(2-hydroxy-2-methyl-propanoyl)amino] thiophene-3-carboxamide] | 617 | 250 | – | 621 | 465 | 26.6 | 678 nM
COc1ccc(C(F)(F)F)c(S(=O)(=O)c2cc(C(N)=O)c(NC(=O)C(C)(C)O)s2)n1 [Compound 420, 2-[(2-hydroxy-2-methyl-propanoyl)amino]-5-[[6-methoxy-3-(trifluoromethyl)-2-pyridyl]sulfonyl] thiophene-3-carboxamide] | 95 | 110 | – | 146 | 97.2 | 8.05 | 197 nM
CC(C)c1nn(C)cc1S(=O)(=O)c1cc(C(N)=O)c(NC(=O)C(C)(C)O)s1 [Compound 421, 2-[(2-hydroxy-2-methyl-propanoyl)amino]-5-(3-isopropyl-1-methyl-pyrazol-4-yl)sulfonyl-thiophene-3-carboxamide] | 1540 | 1590 | – | 1110 | 1930 | 69 | 5530 nM
CC(C)(O)C(=O)Nc1sc(S(=O)(=O)c2ccc(C(F)(F)F)c(F)c2)cc1C(N)=O [Compound 422, 5-[3-fluoro-4-(trifluoromethyl)phenyl]sulfonyl-2-[(2-hydroxy-2-methyl-propanoyl)amino] thiophene-3-carboxamide] | 212 | 64.4 | – | 542 | 448 | 15.3 | 872 nM
CC(C)(O)C(=O)Nc1sc(S(=O)(=O)c2ccc(C(F)(F)F)c(Cl)n2)cc1C(N)=O [Compound 423, 5-[[6-chloro-5-(trifluoromethyl)-2-pyridyl]sulfonyl]-2-[(2-hydroxy-2-methyl-propanoyl)amino] thiophene-3-carboxamide] | 1110 | 162 | – | 1910 | 249 | 10.9 | 842 nM
CC(C)(O)C(=O)Nc1sc(S(=O)(=O)c2nc(Cl)ccc2C(F)(F)F)cc1C(N)=O [Compound 424, 5-[[6-chloro-3-(trifluoromethyl)-2-pyridyl]sulfonyl]-2-[(2-hydroxy-2-methyl-propanoyl)amino] thiophene-3-carboxamide] | 2430 | 178 | – | 332 | 97.3 | 3.19 | 403 nM
CC(C)(O)C(=O)Nc1sc(S(=O)(=O)c2ccsc2C(F)(F)F)cc1C(N)=O [Compound 425, 2-[(2-hydroxy-2-methyl-propanoyl)amino]-5-[[2-(trifluoromethyl)-3-thienyl]sulfonyl] thiophene-3-carboxamide] | 364 | 1270 | – | 715 | 144 | 6.9 | 762 nM
CC(C)(O)C(=O)Nc1sc(S(=O)(=O)c2nc(C(C)(C)C)ccc2C(F)(F)F)cc1C(N)=O [Compound 426, 5-[[6-tert-butyl-3-(trifluoromethyl)-2-pyridyl]sulfonyl]-2-[(2-hydroxy-2-methyl-propanoyl)amino] thiophene-3-carboxamide] | 6.06 | 9.85 | – | 26.2 | 83.1 | 2.58 | 61.3 nM
CC(C)(O)C(=O)Nc1sc(S(=O)(=O)c2cccc(C(F)(F)F)n2)cc1C(N)=O [Compound 427, 2-[(2-hydroxy-2-methyl-propanoyl)amino]-5-[[6-(trifluoromethyl)-2-pyridyl]sulfonyl] thiophene-3-carboxamide] | 438 | 670 | – | 1020 | 1350 | 42 | 2230 nM
CC(C)(O)C(=O)Nc1sc(S(=O)(=O)c2cc(Cl)cc(C(F)(F)F)c2)cc1C(N)=O [Compound 429, 5-[3-chloro-5-(trifluoromethyl)phenyl]sulfonyl-2-[(2-hydroxy-2-methyl-propanoyl)amino] thiophene-3-carboxamide] | 229 | 142 | – | 507 | 208 | 17.5 | 936 nM
Cc1cc(C(F)(F)F)cc(S(=O)(=O)c2cc(C(N)=O)c(NC(=O)C(C)(C)O)s2)c1 [Compound 430, 2-[(2-hydroxy-2-methyl-propanoyl)amino]-5-[3-methyl-5-(trifluoromethyl)phenyl] sulfonyl-thiophene-3-carboxamide] | 3330 | 283 | – | 702 | 321 | 10.7 | 1500 nM
CC(C)(O)C(=O)Nc1sc(S(=O)(=O)c2cc(Cl)ncc2C#N)cc1C(N)=O [Compound 432, 5-[(2-chloro-5-cyano-4-pyridyl)sulfonyl]-2-[(2-hydroxy-2-methyl-propanoyl)amino] thiophene-3-carboxamide] | 3330 | 1110 | – | 1480 | 359 | 47.9 | 5550 nM
CC(C)(O)C(=O)Nc1sc(S(=O)(=O)c2ccc(C(C)(C)C)cn2)cc1C(N)=O [Compound 433, 5-[(5-tert-butyl-2-pyridyl)sulfonyl]-2-[(2-hdyroxy-2-methyl-propanoyl)amino] thiophene-3-carboxamide] | 3330 | 217 | – | 405 | 676 | 48.8 | 1300 nM
NC(=O)c1cc(S(=O)(=O)c2ccc(OC(F)(F)F)cc2F)sc1NC(=O)C1(CO)CC1 [Compound 435, 5-[2-fluoro-4-(trifluoromethoxy)phenyl] sulfonyl-2-[[1-(hydroxymethyl)cyclopropanecarbonyl]amino] thiophene-3-carboxamide] | 117 | 33.8 | – | 242 | 173 | 16.5 | 1920 nM
